Measurements taken from ChEMBL document CHEMBL3885881, “DrugMatrix”.

Organism: Rattus norvegicus
Format: toxicity, organism-based, Sprague-Dawley
Settings: in vivo, po, 24 h, route oral GAVAGE, time 1 day, vehicle 100 % SALINE; for ABSOLUTE BASOPHIL / ABSOLUTE EOSINOPHIL / ABSOLUTE LYMPHOCYTE / ABSOLUTE MONOCYTE / BASOPHIL / EOSINOPHIL / ERYTHROCYTE COUNT / HEMATOCRIT / HEMOGLOBIN / LEUKOCYTE COUNT / LYMPHOCYTE / MEAN CORPUSCULAR HEMOGLOBIN / MEAN CORPUSCULAR HEMOGLOBIN CONCENTRATION / MEAN CORPUSCULAR VOLUME / MONOCYTE / NEUTROPHIL / PLATELET COUNT: tissue Blood; for ALANINE AMINOTRANSFERASE / ALBUMIN / ALKALINE PHOSPHATASE / ASPARTATE AMINOTRANSFERASE / BLOOD UREA NITROGEN / CARBON DIOXIDE / CHLORIDE / CHOLESTEROL / CREATINE PHOSPHOKINASE / CREATININE / GLUCOSE / LACTATE DEHYDROGENASE / LIPASE / PHOSPHORUS / POTASSIUM / SODIUM / TOTAL BILIRUBIN / TOTAL PROTEIN / URIC ACID: tissue Plasma
[1] = 0 mg/kg, vehicle control, dose level Control
[2] = […], dose 7.5 mg/Kg, dose level High

Description: DrugMatrix - Regimen: Single

SMILES: Nc1ncnc2c1ncn2[C@@H]1O[C@H](CO)[C@@H](O)[C@H]1F [2'-BETA-FLUORO-2',3'-DEOXYADENOSINE]
- ABSOLUTE BASOPHIL [1]: 73.3 cells/µL
- ABSOLUTE EOSINOPHIL [1]: 86.7 cells/µL
- ABSOLUTE LYMPHOCYTE [1]: 8400 cells/µL
- ABSOLUTE MONOCYTE [1]: 350 cells/µL
- BASOPHIL [1]: 0.63%
- EOSINOPHIL [1]: 0.73%
- ERYTHROCYTE COUNT [1]: 6.55 x10E6/uL
- HEMATOCRIT [1]: 42.83%
- HEMOGLOBIN [1]: 13.6 G/DL
- LEUKOCYTE COUNT [1]: 11.33 x10E3/uL
- LYMPHOCYTE [1]: 74.77%
- MEAN CORPUSCULAR HEMOGLOBIN [1]: 20.77 pg
- MEAN CORPUSCULAR HEMOGLOBIN CONCENTRATION [1]: 31.7 G/DL
- MEAN CORPUSCULAR VOLUME [1]: 65.53 fL
- MONOCYTE [1]: 3%
- NEUTROPHIL [1]: 20.2%
- PLATELET COUNT [1]: 1394.33 x10E3/uL
- ALANINE AMINOTRANSFERASE [1]: 34 u/L
- ALBUMIN [1]: 4.03 G/DL
- ALKALINE PHOSPHATASE [1]: 345.33 u/L
- ASPARTATE AMINOTRANSFERASE [1]: 69.67 u/L
- BLOOD UREA NITROGEN [1]: 14.33 mg/dL
- CARBON DIOXIDE [1]: 46 mmol/L
- CHLORIDE [1]: 102.67 MEQ/L
- CHOLESTEROL [1]: 85 mg/dL
- CREATINE PHOSPHOKINASE [1]: 292 u/L
- CREATININE [1]: 0.2 mg/dL
- GLUCOSE [1]: 168 mg/dL
- LACTATE DEHYDROGENASE [1]: 114.33 u/L
- LIPASE [1]: 13 u/L
- PHOSPHORUS [1]: 11.2 mg/dL
- POTASSIUM [1]: 7.07 MEQ/L
- SODIUM [1]: 144.67 MEQ/L
- TOTAL BILIRUBIN [1]: 0.27 mg/dL
- TOTAL PROTEIN [1]: 6.57 G/DL
- URIC ACID [1]: 0.73 mg/dL
- ABSOLUTE BASOPHIL [2]: 36.7 cells/µL
- ABSOLUTE EOSINOPHIL [2]: 40 cells/µL
- ABSOLUTE LYMPHOCYTE [2]: 7660 cells/µL
- ABSOLUTE MONOCYTE [2]: 240 cells/µL
- BASOPHIL [2]: 0.37%
- EOSINOPHIL [2]: 0.43%
- ERYTHROCYTE COUNT [2]: 7.06 x10E6/uL
- HEMATOCRIT [2]: 46.1%
- HEMOGLOBIN [2]: 14.4 G/DL
- LEUKOCYTE COUNT [2]: 9.56 x10E3/uL
- LYMPHOCYTE [2]: 79.8%
- MEAN CORPUSCULAR HEMOGLOBIN [2]: 20.4 pg
- MEAN CORPUSCULAR HEMOGLOBIN CONCENTRATION [2]: 31.2 G/DL
- MEAN CORPUSCULAR VOLUME [2]: 65.37 fL
- MONOCYTE [2]: 2.57%
- NEUTROPHIL [2]: 16.23%
- PLATELET COUNT [2]: 1451.67 x10E3/uL
- ALANINE AMINOTRANSFERASE [2]: 40.67 u/L
- ALBUMIN [2]: 4.03 G/DL
- ALKALINE PHOSPHATASE [2]: 348 u/L
- ASPARTATE AMINOTRANSFERASE [2]: 71.67 u/L
- BLOOD UREA NITROGEN [2]: 15 mg/dL
- CARBON DIOXIDE [2]: 42.67 mmol/L
- CHLORIDE [2]: 103.33 MEQ/L
- CHOLESTEROL [2]: 98.67 mg/dL
- CREATINE PHOSPHOKINASE [2]: 439.67 u/L
- CREATININE [2]: 0.3 mg/dL
- GLUCOSE [2]: 185.67 mg/dL
- LACTATE DEHYDROGENASE [2]: 90 u/L
- LIPASE [2]: 12 u/L
- PHOSPHORUS [2]: 11.67 mg/dL
- POTASSIUM [2]: 6.3 MEQ/L
- SODIUM [2]: 146 MEQ/L
- TOTAL BILIRUBIN [2]: 0.27 mg/dL
- TOTAL PROTEIN [2]: 6.7 G/DL
- URIC ACID [2]: 0.97 mg/dL
